Data as given in PMC6440935, “Characterization and phase I study of CLR457, an orally bioavailable pan-class I PI3-kinase inhibitor” (Investigational New Drugs, 2018).
Where two headings read alike, the source gives them in different places.

[1] = drug-related, All Patients, N = 31
[2] = drug-related, all patients N = 31
[3] = suspected related, all patients

From the text: The primary objective was to define the maximum tolerated dose (MTD). Secondary objectives included assessments for safety, tolerability, pharmacokinetic (PK) profile, and preliminary antitumor activity.
Patients had histologically documented locally advanced or metastatic solid tumors harboring an activating PIK3CA mutation or amplification, PTEN loss of function, c-MET activation, [16, 17] […] Other key inclusion criteria included age ≥ 18 years, Eastern Cooperative Oncology Group performance status (ECOG-PS) ≤2, adequate organ function, measurable or non-measurable disease as determined by Response Evaluation Criteria in Solid Tumors (RECIST) version 1.1.
The starting dose for CLR457 was 5 mg QD, based on preclinical toxicology studies in accordance with ICH guidelines, and was administered at the same time each day ±2 h in a fasted state. Various doses were planned up to 300 mg QD until MTD determination.
Safety was evaluated by incidence, nature, severity, and relatedness of adverse events (AEs), and graded according to National Cancer Institute - Common Terminology Criteria for Adverse Events (NCI CTCAE) v4.0.3. DLTs were defined as any hematologic or non-hematologic ≥ Grade 3 AE assessed as possibly related to CLR457 that occurred within the first cycle (28 days) of treatment. In addition, uncontrolled (> 14 days) Grade 2 rash or hyperglycemia were also considered DLTs. All AEs regardless of attribution were collected until 30 days following the last administration of treatment or study discontinuation/termination.
Descriptive methods were used to tabulate toxicity and response endpoints in the clinical trial. All patients treated with CLR457 were included for safety. […] Dose escalation was guided by an adaptive Bayesian logistic regression model (BLRM) incorporating the escalation with overdose control (EWOC) principle. […] The study data (including DLTs during cycle 1 and other safety and PK data) were reviewed by the sponsor and trial investigators at each dose level. […] The Full Analysis Set (FAS) included all patients who received at least one dose of CLR457. Safety set included all patients who received at least one dose of CLR457 and had at least one valid post-baseline assessment. The Dose-determining set (DDS) included all patients from the safety set who either met the following minimum exposure criterion and had sufficient safety evaluations, or experienced a DLT during Cycle 1 (the first 28 days of dosing). The Pharmacokinetic analysis set included all patients who had at least one blood sample providing evaluable PK data.

## C[C@H]1OC(=O)N(c2cc(-c3cnc(N)nc3C(F)(F)F)nc(N3CCOCC3)n2)[C@H]1CO [CLR457]
drug-related, 100 mg, N = 11
  Dehydration, All Grade: 1 (9.1) n (%)
  Dehydration, Grade ≥ 3: 0 n (%)
  Diarrhea, All Grade: 5 (45.5) n (%)
  Diarrhea, Grade ≥ 3: 1 (9.1) n (%)
  Dry mouth, All Grade: 1 (9.1) n (%)
  Dry mouth, Grade ≥ 3: 0 n (%)
  Dry skin, All Grade: 1 (9.1) n (%)
  Dry skin, Grade ≥ 3: 0 n (%)
  Dysgeusia, All Grade: 3 (27.3) n (%)
  Dysgeusia, Grade ≥ 3: 0 n (%)
  Fatigue, All Grade: 4 (36.4) n (%)
  Fatigue, Grade ≥ 3: 1 (9.1) n (%)
  Headache, All Grade: 1 (9.1) n (%)
  Headache, Grade ≥ 3: 0 n (%)
  Hyperglycemia, All Grade: 4 (36.4) n (%)
  Hyperglycemia, Grade ≥ 3: 1 (9.1) n (%)
  Hypomagnesaemia, All Grade: 1 (9.1) n (%)
  Hypomagnesaemia, Grade ≥ 3: 0 n (%)
  Maculo-papular rash, All Grade: 7 (63.6) n (%)
  Maculo-papular rash, Grade ≥ 3: 5 (45.5) n (%)
  Nausea, All Grade: 4 (36.4) n (%)
  Nausea, Grade ≥ 3: 0 n (%)
  Pneumonitis, All Grade: 2 (18.2) n (%)
  Pneumonitis, Grade ≥ 3: 2 (18.2) n (%)
  Pruritus, All Grade: 3 (27.3) n (%)
  Pruritus, Grade ≥ 3: 0 n (%)
  Pyrexia, All Grade: 3 (27.3) n (%)
  Pyrexia, Grade ≥ 3: 0 n (%)
  Rash, All Grade: 3 (27.3) n (%)
  Rash, Grade ≥ 3: 1 (9.1) n (%)
  Stomatitis, All Grade: 9 (81.8) n (%)
  Stomatitis, Grade ≥ 3: 0 n (%)
  Vomiting, All Grade: 2 (18.2) n (%)
  Vomiting, Grade ≥ 3: 0 n (%)
  Weight decreased, All Grade: 0 n (%)
  Weight decreased, Grade ≥ 3: 0 n (%)
[1]
  Asthenia, All Grade: 3 (9.7) n (%)
  Asthenia, Grade ≥ 3: 0 n (%)
  Chills, All Grade: 2 (6.5) n (%)
  Chills, Grade ≥ 3: 0 n (%)
  Colitis, All Grade: 2 (6.5) n (%)
  Colitis, Grade ≥ 3: 2 (6.5) n (%)
  Cough, All Grade: 2 (6.5) n (%)
  Cough, Grade ≥ 3: 0 n (%)
  Decreased appetite, All Grade: 7 (22.6) n (%)
  Decreased appetite, Grade ≥ 3: 0 n (%)
  Decreased neutrophil count, All Grade: 2 (6.5) n (%)
  Decreased neutrophil count, Grade ≥ 3: 1 (3.2) n (%)
  Dehydration, All Grade: 2 (6.5) n (%)
  Dehydration, Grade ≥ 3: 1 (3.2) n (%)
  Diarrhea, All Grade: 12 (38.7) n (%)
  Diarrhea, Grade ≥ 3: 2 (6.5) n (%)
  Dry mouth, All Grade: 2 (6.5) n (%)
  Dry mouth, Grade ≥ 3: 0 n (%)
  Dry skin, All Grade: 2 (6.5) n (%)
  Dry skin, Grade ≥ 3: 0 n (%)
  Dysgeusia, All Grade: 4 (12.9) n (%)
  Dysgeusia, Grade ≥ 3: 0 n (%)
  Fatigue, All Grade: 9 (29.0) n (%)
  Fatigue, Grade ≥ 3: 1 (3.2) n (%)
  Headache, All Grade: 2 (6.5) n (%)
  Headache, Grade ≥ 3: 0 n (%)
  Hyperglycemia, All Grade: 7 (22.6) n (%)
  Hyperglycemia, Grade ≥ 3: 1 (3.2) n (%)
  Hypomagnesaemia, All Grade: 2 (6.5) n (%)
  Hypomagnesaemia, Grade ≥ 3: 0 n (%)
  Maculo-papular rash, All Grade: 11 (35.5) n (%)
  Maculo-papular rash, Grade ≥ 3: 8 (25.8) n (%)
  Nausea, All Grade: 9 (29.0) n (%)
  Nausea, Grade ≥ 3: 0 n (%)
  Pneumonitis, All Grade: 2 (6.5) n (%)
  Pneumonitis, Grade ≥ 3: 2 (6.5) n (%)
  Pruritus, All Grade: 5 (16.1) n (%)
  Pruritus, Grade ≥ 3: 0 n (%)
  Pyrexia, All Grade: 4 (12.9) n (%)
  Pyrexia, Grade ≥ 3: 0 n (%)
  Rash, All Grade: 6 (19.4) n (%)
  Rash, Grade ≥ 3: 2 (6.5) n (%)
  Stomatitis, All Grade: 14 (45.2) n (%)
  Stomatitis, Grade ≥ 3: 0 n (%)
  Vomiting, All Grade: 5 (16.1) n (%)
  Vomiting, Grade ≥ 3: 0 n (%)
  Weight decreased, All Grade: 2 (6.5) n (%)
  Weight decreased, Grade ≥ 3: 0 n (%)
[2]
  Decreased appetite, any grade: 22.6%
  Diarrhea, any grade: 38.7%
  Fatigue, any grade: 29%
  Hyperglycemia, any grade: 22.6%
  Maculo-papular rash, any grade: 35.5%
  Nausea, any grade: 29%
  Stomatitis, any grade: 45.2%
In vivo
  Drug-related AEs leading to discontinuation of study treatment: 16.1%
  SAEs suspected to be related to the study treatment: 22.6%
Of 31 patients treated, 5-100 mg QD
  Patients with DLTs: 4 patients
[3]
  SAE colitis: 6.5%
  SAE diarrhea: 6.5%
  SAE pneumonitis: 6.5%
